Experimental data as given in patent publication US11807607B1, “Aminocarbazole compounds as antibacterial agents” (KING FAISAL UNIVERSITY, priority 2023, dated 2023).
Values after ≈ are worked out from the molar mass of the structure shown. Like-named read-outs stand apart in the source and are kept apart here.

Assays:
[1] = system: Bacillus subtilis MTCC 441; experiment: Antibacterial MIC, CLSI M07-A10 dilution susceptibility test; format: cell-based; settings: MTCC441
[2] = system: Staphylococcus aureus ATCC BAA-1556 (MERSA resistant); experiment: as above; format: cell-based; settings: ATCCBAA1556
[3] = system: Pseudomonas aeruginosa MTCC 741; experiment: as above; format: cell-based; settings: MTCC741
[4] = system: Escherichia coli MTCC 443; experiment: as above; format: cell-based; settings: MTCC443
[5] = system: Staphylococcus aureus ATCC 29213; experiment: as above; format: cell-based; settings: ATCC29213
[6] = system: Enterococcus faecium ATCC 51559 (VRE resistant); experiment: as above; format: cell-based
[7] = system: Staphylococcus epidermidis; experiment: as above; format: cell-based
[8] = system: Klebsiella pneumonia MTCC 618; experiment: as above; format: cell-based; settings: Klebsiella pneumoniae, MTCC618
[9] = system: Enterococcus faecium ATCC 35667; experiment: as above; format: cell-based; settings: ATCC35667
DNA gyrase from E. coli = molecular target: T1, DNA gyrase from E. coli (Escherichia coli, UniProt P0AES4+P0AES6); experiment: Inspiralis E. coli DNA gyrase inhibition assay; format: biochemical
T1 construct: purchased Inspiralis
T1 sequence (P0AES4 whole entry, one chain of several): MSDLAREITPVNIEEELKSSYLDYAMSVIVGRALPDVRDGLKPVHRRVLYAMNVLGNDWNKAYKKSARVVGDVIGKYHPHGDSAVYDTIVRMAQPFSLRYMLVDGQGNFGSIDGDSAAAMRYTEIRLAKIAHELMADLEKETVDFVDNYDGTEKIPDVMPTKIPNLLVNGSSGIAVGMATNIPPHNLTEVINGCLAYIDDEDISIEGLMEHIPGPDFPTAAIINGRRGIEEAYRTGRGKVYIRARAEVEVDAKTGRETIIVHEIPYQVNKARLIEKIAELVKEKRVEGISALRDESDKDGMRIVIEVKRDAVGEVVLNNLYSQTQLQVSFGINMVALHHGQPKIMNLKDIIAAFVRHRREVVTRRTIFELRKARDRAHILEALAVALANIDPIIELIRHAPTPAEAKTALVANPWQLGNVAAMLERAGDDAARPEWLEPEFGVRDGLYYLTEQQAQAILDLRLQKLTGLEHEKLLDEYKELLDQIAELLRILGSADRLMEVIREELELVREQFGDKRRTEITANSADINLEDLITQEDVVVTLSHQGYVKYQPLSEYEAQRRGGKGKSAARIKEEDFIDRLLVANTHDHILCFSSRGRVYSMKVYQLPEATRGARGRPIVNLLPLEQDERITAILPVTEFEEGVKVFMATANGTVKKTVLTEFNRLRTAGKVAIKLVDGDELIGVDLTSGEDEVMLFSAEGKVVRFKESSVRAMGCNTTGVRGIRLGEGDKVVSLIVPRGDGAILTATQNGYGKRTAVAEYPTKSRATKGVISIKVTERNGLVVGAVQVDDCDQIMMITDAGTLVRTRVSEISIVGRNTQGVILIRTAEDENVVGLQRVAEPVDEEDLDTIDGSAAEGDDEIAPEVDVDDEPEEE
Protocol: Inhibitory potencies were investigated utilizing the Inspiralis assay on streptavidin-coated 96-well microtiter plates. First, the plates were rehydrated with buffer (20 mM Tris-HCl with pH 7.6, 0.01% w/v BSA, 0.05% v/v Tween 20, 137 mM NaCl) and the biotinylated oligonucleotide was then immobilized. After washing off the unbound oligonucleotide, the enzyme test was performed. […] Reaction solutions were incubated at 37° C. for 30 min. After that, the TF buffer (50 mM NaOAc with pH 5.0, 50 mM NaCl and 50 mM MgCl2) was added to terminate the enzymatic reaction. After additional incubation for 30 min at rt, during which biotinoligonucleotide-plasmid triplex was formed, the unbound plasmid was washed off using TF buffer and SybrGOLD in T10 buffer (10 mM Tris HCl with pH 8.0 and 1 mM EDTA) was added. The fluorescence was measured with a microplate reader (BioTek Synergy H4, excitation: 485 nm, emission: 535 nm). Initial screening was done at 100 or 10 μM concentration of inhibitors. […] GraphPad Prism software was used to calculate the IC50 values. The result is given as the average value of three independent measurements.

[10] = system: Mycobacterium tuberculosis H37Rv strain; experiment: Anti-tubercular alamar blue microplate MIC assay; format: cell-based; settings: 168 h, M. tuberculosis H37Rv, 7 days at 37° C., read-out: anti-mycobacterial activity (MIC)
[11] = system: Gram-positive and Gram-negative bacterial strains, drug sensitive and drug resistant; experiment: In vitro antibacterial activity evaluation, whole strain panel

## CNc1cc(F)cc2c1[nH]c1ccc(Nc3cccc(C(=O)O)c3)cc12 [Compound 6, 3-((6-fluoro-8-(methylamino)-9H-carbazol-3-yl)amino)benzoic acid]
[1]; Bacillus subtilis MTCC 441, read-out: MIC
  MIC: 0.75 µg/mL (≈ 2.15 µM)
[2]
  MIC: 1 µg/mL (≈ 2.86 µM)
[3]; Pseudomonas aeruginosa MTCC 741, read-out: MIC
  MIC: 16 µg/mL (≈ 45.8 µM)
[4]; Escherichia coli MTCC 443, read-out: MIC
  MIC: 32 µg/mL (≈ 91.6 µM)
[5]
  MIC: 0.75 µg/mL (≈ 2.15 µM)
[6]; Enterococcus faecium ATCC 51559 (VRE resistant), read-out: MIC
  MIC: 2 µg/mL (≈ 5.72 µM)
[7]; read-out: MIC
  MIC: 0.5 µg/mL (≈ 1.43 µM)
[8]; Klebsiella pneumonia MTCC 618, read-out: MIC
  MIC: 1 µg/mL (≈ 2.86 µM)
[9]; Enterococcus faecium ATCC 35667, read-out: MIC
  MIC: 1 µg/mL (≈ 2.86 µM)

## CNc1cc(F)cc2c1[nH]c1ccc(-c3cccc(CC(=O)O)c3)cc12 [Compound 1, 2-(3-(6-fluoro-8-(methylamino)-9H-carbazol-3-yl)phenyl)acetic acid]
DNA gyrase from E. coli
  IC50: 80 nM
[10]
  MIC: 2 µg/mL (≈ 5.74 µM)
[11]
  antibacterial activity (in words): promising antibacterial activity

## CN[C@H](CC(C)C)C(=O)N[C@H]1C(=O)N[C@@H](CC(N)=O)C(=O)N[C@H]2C(=O)N[C@H]3C(=O)N[C@H](C(=O)N[C@H](C(=O)O)c4cc(O)cc(O)c4-c4cc3ccc4O)[C@H](O)c3ccc(c(Cl)c3)Oc3cc2cc(c3O[C@@H]2O[C@H](CO)[C@@H](O)[C@H](O)[C@H]2O[C@H]2C[C@](C)(N)[C@H](O)[C@H](C)O2)Oc2ccc(cc2Cl)[C@H]1O [Vancomycin, reference compound]
[1]; Bacillus subtilis
  MIC: 0.5 µg/mL (≈ 0.345 µM)
[3]; Pseudomonas aeruginosa
  MIC: > 128 µg/mL
[4]; Escherichia coli
  MIC: > 128 µg/mL
[6]; Enterococcus faecium
  MIC: > 128 µg/mL
[7]
  MIC: 1 µg/mL (≈ 0.69 µM)
[8]
  MIC: > 128 µg/mL
[9]; Enterococcus faecium
  MIC: 0.5 µg/mL (≈ 0.345 µM)
